Reference: patent publication US8048840B2, “Ether compound” (Kao Corporation, priority 2007, dated 2011)

Assay: Emulsification of a mixture of water and oil
Assay type: physicochemical
Details: with addition of the compound
Source text: Therefore, it is understood that the novel ether compound of the present invention has good water-solubility. It was confirmed that a mixture of water and oil was emulsified with addition of the compound a1-1.

Substance: dendrimer type tetraglycidyl polylauryl ether [a1-1]
- emulsification of a mixture of water and oil: emulsified
